Data as given in the NIST ThermoML archive (doi:10.1021/je700099w).
± gives the expanded uncertainty stated by the source.

Experiments:
[1] = refractive index (Na D-line) (dimensionless); details: 298.15 K, 101.33 kPa, Liquid
[2] = 298.15 K; 101.33 kPa; Liquid

| SMILES | refractive index [1] | mass density [2] [kg/m3] | refractive index ([1]; Standard Abbe refractometry) |
| --- | --- | --- | --- |
| CCCCn1cc[n+](C)c1.F[P-](F)(F)(F)(F)F [1-butyl-3-methylimidazolium hexafluorophosphate] | 1.40937 ± 0.0011 | 1367.3 ± 2.9 |  |
| CCCCCCn1cc[n+](C)c1.F[P-](F)(F)(F)(F)F [1-hexyl-3-methylimidazolium hexafluorophosphate] | 1.41787 ± 0.0011 | 1293.7 ± 2.5 |  |
| CCCCCCCC[n+]1ccn(C)c1.F[P-](F)(F)(F)(F)F [1-octyl-3-methylimidazolium hexafluorophosphate] | 1.42302 ± 0.0011 | 1235.7 ± 2.2 |  |
| CCCCO [butan-1-ol] |  | 805.6 ± 0.5 | 1.39726 ± 0.00072 |
| CCCCCO [pentan-1-ol] |  | 810.8 ± 0.8 | 1.40797 ± 0.00075 |
| CCCO [propan-1-ol] |  | 799.6 ± 0.8 | 1.38305 ± 0.00075 |
